Results from patent US20160151347A1, “PHARMACEUTICAL COMPOUNDS” (ISIS Innovation LTD, priority 2013, published 2016).
Blank lines part the entries; values can stand above or below the compound they belong to.

What was measured:
[1] = tested on: human patient with sinus tachycardia; test: Case report: heart rate (ECG) of a human patient with sinus tachycardia and systemic lupus erythematosus
Source text: The heart rate of a mammal is defined as the number of heart beats per unit of time, usually heart beats per minute (bpm). The heart rate or number of heart beats per unit of time can be determined using methods known in the art. Such a method may involve the simple measurement of a mammal's pulse. Alternatively, heart rate may be measured through the use of an electrocardiograph (ECG), which is readily available to those skilled in the art. Such a method involves counting the number of QRS complexes in the ECG.
The patient was a person with no previous history of cardiac related disease.
Furthermore, the glyceryl trinitrate spray was used whenever angina symptoms were experienced.
In June 2009, the patient was diagnosed with systemic lupus erythematosus.
On Aug. […] On Aug. […] On Sep.

male Sprague-Dawley rats = test: Rat in-vivo blood pressure and heart rate study (anaesthetised, carotid cannula)
Method: Data was acquired (200 Hz) in real time using a Biopac M100 system connected to a Dell P4 computer using AcqKnowledge software. Heart rate was triggered from the arterial blood pressure signal. Intravenous access was gained via the left external jugular vein using a 3 F cannula. After an equilibration period of at least 10 minutes, hydoxychloroquine (dissolved in sterile normal saline for injection and warmed to body temperature) was given as intravenous boluses over 30 seconds (1-30 mg/kg). […] Once a stable response had been reached, measurements were taken as an average over 30 seconds. On completion of the protocol, animals were euthanised with intraperitoneal injection of pentobarbitone. […] Data was acquired (200 Hz) in real time using a Biopac M100 system connected to a Dell P4 computer using AcqKnowledge software. Heart rate was triggered from the arterial blood pressure signal. Intravenous access was gained via the left external jugular vein using a 3 F cannula. After an equilibration period of at least 10 minutes, hydoxychloroquine (dissolved in sterile normal saline for injection and warmed to body temperature) was given as intravenous boluses over 30 seconds (1-30 mg/kg). […] Once a stable response had been reached, measurements were taken as an average over 30 seconds. On completion of the protocol, animals were euthanised with intraperitoneal injection of pentobarbitone.

[2] = tested on: mouse atrial tissue preparations with intact sino-atrial node; test: Spontaneous beating rate of isolated mouse atrial preparations (tension transducer); type: cell-based; conditions: for reduction in beating rate from control: n=7 (Example 5); for decrease in spontaneous frequency: 30 minute exposure, n=6 (Example 3)
Source text: (§1) Male CD-1 mice (7-9 weeks of age) were terminated by concussion followed by dislocation. The chest cavity was opened and heparinised solution (10 U/mL) applied around the heart to minimise clotting during dissection. The heart was rapidly excised and placed in warm, oxygenated modified Tyrode solution (PSS, in mM: NaCl 125, NaHCO3 25, KCl 5.4, NaH2PO4 1.2, MgCl2 1, glucose 5.5, CaCl2 1.8, pH to 7.4 with NaOH and oxygenated with 95% O2/5% CO2), the ventricular tissue discarded and the sino-atrial node region cleared of any overlying tissue.
Loops of thin suture were tied to the lateral edges of each atrium by directly knotting around a small area of the tissue, taking care to avoid contact with the node itself. One loop was anchored to a hook, which also provided oxygenation to the organ bath, and the other tied to a tension transducer. The preparation was hung in an organ bath filled with PSS, maintained at 37° C. Tension data was digitised using a PowerLabs bridge amplifier and recorded on Chart5 software (all from ADlnstruments, UK). Beating rate was calculated in real-time from the upstroke of the tension signal using the Chart5 Ratemeter function.
Spontaneously-beating atrial preparations were allowed to stabilise for 20 minutes, solution was exchanged for fresh, warmed, PSS and the preparation was again allowed to stabilise for 30 minutes. Drugs were added directly to the organ bath by pipette and allowed to equilibrate for 30 minutes before rate data was sampled.
Male CD-1 mice (7-9 weeks of age) were terminated by concussion followed by dislocation.
as §1, with “The” for “Male CD-1 mice (7-9 weeks of age) were terminated by concussion followed by dislocation. The”

If current = If current recordings, perforated patch voltage clamp in single isolated sinoatrial node cells; type: cell-based, guinea pig; conditions: for reduction in If current: 1 μM, 5 min exposure, n=7
C57BL/6 mice = tested on: C57BL/6 mice; parameters: species or system mouse; conditions: in vivo
Source text: Automated non-invasive tail cuff plethysmography (Visitech 2000, Visitech, USA) was used to determine systolic blood pressure in response to HCQ in drinking water when compared to a control group (n=9/group). C57BL/6 mice were habituated for 5 days and then underwent measurements alternate day for 28 days. All measurements were taken in the morning at the same time of day. Twenty measurements were taken, the first 10 discarded and an average of valid recordings then taken for analysis.
We assessed safety by performing long term feeding of mice at 100 mg/kg daily for 28 days with HCQ (FIG. 9) and measuring blood pressure by tail cuff plethysmography.

[3] = tested on: isolated guinea-pig sino-atrial node cells; test: Action potential recordings, current clamp in single isolated sino-atrial node cells; type: cell-based; conditions: 1 μM
Method: Male guinea pigs (350-500 g) were sacrificed by concussion followed by cervical dislocation. The heart was rapidly excised and encouraged to beat several times in heparin-containing zero-Ca ^2+ modified Tyrode solution to prevent clotting (10 U/mL). The heart was mounted via the aorta on a constant pressure Langendorff system for retrograde perfusion, with solutions maintained at body temperature. After 2 minutes initial wash with zero Ca ^2+ solution (in mM: NaCl 136, KCI 5.4, NaHCO3 12, Na^+ pyruvate 1, NaH2PO4 1, MgCl2 1, EGTA 0.04, glucose 5; gassed with 95% O2/5% CO2 to maintain a pH of 7.4), perfusion was switched to re-circulation with collagenase solution (same as zero Ca^2+ but with 27 mg collagenase/50 mL—type II Worthington, Worthington Biochemical Corp., Lakewood, N.J., USA—0.1 mM CaCl2 and no EGTA).
Following 25 minutes enzymatic digestion, the right atrium, vena-cavae and pulmonary artery were dissected away from the ventricles. The right atrium was pinned in a Sylgard-coated bath, opened by anterior incision, and the SA node identified from anatomical features and tissue appearance. Under a binocular microscope, the SA node appears as a translucent, smooth, white structure in contrast to the thicker, pinker surrounding atrial tissue. The SA node was dissected into thin strips 2×5 mm) and stored in a high potassium medium (in mM: KCI 70, MgCl2 5, K^+ glutamine 5, taurine 20, EGTA 0.04, succinic acid 5, KH2PO4 20, HEPES 5, glucose 10; pH to 7.2 with KOH). Isolation of single SA node myocytes was carried out by gentle trituration.
For all single cell experiments, cells were transferred to a glass coverslip and superfused with oxygenated PSS at 34 ±1° C. using a gravity-fed system running at 2-3 mL/min. HCQ was applied via superfusion, with an electronic switching mechanism resulting in full solution exchange over a period of less than 20 seconds.
Perforated patch clamp recordings were carried out using electrodes pulled from filamented borosilicate glass capillary tubing (GC100 F, Harvard Apparatus Ltd, Kent) using a two-stage vertical puller (Narishige, Japan). […]
Micropipettes were mounted in a Perspex holder containing an Ag/AgCl wire and connected to a CV203BU headstage. All recordings were carried out using an AxoPatch 200B microelectrode system, digitised with a Digidata 1200 A-D converter, and recorded using PCIamp7 software at a sampling rate of 2 kHz (All products in this paragraph, Axon Instruments). […]
Action potentials were recorded from single guinea pig SA node cells under current clamp conditions using the AxoPatch200B microelectrode system and rate measured in Hz using spectral analysis. […]

[4] = 3 μM, 5 mins superfusion, n=4 cells

SMILES: CC(C)NCC(O)COc1ccc(CC(N)=O)cc1 (centres unmarked) [atenolol]
side effects experienced ([1]; patient on atenolol): tiredness associated with the onset of use of atenolol, low blood pressure and increased effects of Raynaud's syndrome
heart rate ([1]; patient treated with atenolol and a glyceryl trinitrate spray, about 118 bpm at rest before): 70-80 bpm

start weight (C57BL/6 mice; mouse): 27.72 ± 0.36 g
SMILES: CCN(CCO)CCCC(C)Nc1ccnc2cc(Cl)ccc12 (centres unmarked) [hydroxychloroquine, 2-[{4-[(7-chloroquinolin-4-yl)amino]pentyl}(ethyl)amino]ethanol]
heart rate ([1]; 200 mg daily resumed Aug. 4, 2010, measured Sep. 16, 2010): 80-88 bpm
stable heart rate ([1]; 200 mg daily, August 2010 until December 2010): 70-85 bpm
heart rate ([1]; 200 mg to 400 mg Plaquenil per day, Atenolol completely ceased): 70-80 bpm
recorded heart rate ([1]; dose halved to 100 mg per day, ECG Aug. 3, 2010): 109 bpm
cumulative dose at which a significant transient reduction in heart rate is observed (male Sprague-Dawley rats; cumulative intravenous doses): ≥ 7.5 mg/kg
effect on blood pressure at low doses (male Sprague-Dawley rats; low intravenous doses (1-15 mg), n=6): without an effect on blood pressure
effect on blood pressure at very high doses (male Sprague-Dawley rats; very high intravenous doses): an effect on blood pressure (which recovers over time)
reduction in beating rate from control ([2]; 3 μM cumulative dose): 9±3%
decrease in spontaneous frequency ([2]; 3 μM): 11%
reduction in beating rate from control ([2]; 10 μM cumulative dose): 15±2%
decrease in spontaneous frequency ([2]; 10 μM): 20%
reduction in If current (If current; −80 mV voltage step): 20+/−4%
reduction in If current (If current; −100 mV step): 12+/−4%
maximal conductance of I(f) (If current; [4]): 85±6 % of control
voltage of half-activation (V50) and slope of conductance (If current; [4]): unchanged
systolic blood pressure, baseline (C57BL/6 mice; C57BL/6, mouse): 109.7±2.89 mmHg
reduction in cellular beating rate (action potential firing rate) ([3]; 3 mins of exposure, n=6): 10±3%
lengthening in the time taken to reach 50% repolarisation ([3]; 5 min superfusion): 11+/-3%
reduction in the slope of spontaneous diastolic depolarization ([3]; 5 min superfusion): 25+/−3%
reduction in rate of spontaneous action potential generation (cellular beating rate) ([3]; 5 min superfusion, n=6, listed as HCQ): 17±6%
